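Following 48 hours of exposure in 96-well plates, responses at five concentrations were used to interpolate endpoints linearly. GI50 marks 50% less growth.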 Calls of active or inactive are those of the source. Rule as the data show it: active = GI50 up to about 1.1 µM and inactive = higher.
Tests used:
Assay in all cases: DTP human tumour cell line panel, 48 h
RXF 393 = tested on: RXF 393
U-251 = tested on: U-251
ACHN = tested on: ACHN
MDA-N = tested on: MDA-N
SK-MEL-28 = tested on: SK-MEL-28
MDA-MB-435 = tested on: MDA-MB-435
SK-OV-3 = tested on: SK-OV-3
IGROV-1 = tested on: IGROV-1
CCRF-CEM = tested on: CCRF-CEM
MCF7 = tested on: MCF7
NCI-H226 = tested on: NCI-H226
UACC-62 = tested on: UACC-62
SW-620 = tested on: SW-620
DU-145 = tested on: DU-145
MDA-MB-231 = tested on: MDA-MB-231
HCT-116 = tested on: HCT-116
SF-539 = tested on: SF-539
OVCAR-5 = tested on: OVCAR-5
KM12 = tested on: KM12

SMILES	GI50 (RXF 393)	GI50 (U-251)	GI50 (ACHN)	GI50 (MDA-N)	GI50 (SK-MEL-28)	GI50 (MDA-MB-435)	GI50 (SK-OV-3)	GI50 (IGROV-1)	GI50 (CCRF-CEM)	GI50 (MCF7)	GI50 (NCI-H226)	GI50 (UACC-62)	GI50 (SW-620)	GI50 (DU-145)	GI50 (MDA-MB-231)	GI50 (HCT-116)	GI50 (SF-539)	GI50 (OVCAR-5)	GI50 (KM12)
O=C1NC(=O)C2(CCCCCC2)N1	> 100 µM (inactive)	> 100 µM (inactive)	> 100 µM (inactive)	> 100 µM (inactive)	> 100 µM (inactive)	> 100 µM (inactive)	> 100 µM (inactive)	> 100 µM (inactive)	> 100 µM (inactive)	> 100 µM (inactive)	> 100 µM (inactive)	> 100 µM (inactive)	> 100 µM (inactive)	> 100 µM (inactive)	> 100 µM (inactive)	> 100 µM (inactive)	> 100 µM (inactive)	> 100 µM (inactive)	> 100 µM (inactive)
COc1ccc(OC)c(/C=C/c2ccnc3ccccc23)c1	0.377 µM (active)	0.374 µM (active)	0.533 µM (active)	0.156 µM (active)	0.574 µM (active)	0.167 µM (active)	0.403 µM (active)	0.822 µM (active)	0.337 µM (active)	0.851 µM (active)	0.441 µM (active)	0.307 µM (active)	0.366 µM (active)	0.525 µM (active)	0.565 µM (active)	0.377 µM (active)	0.21 µM (active)	2.43 µM (inactive)	0.312 µM (active)
COc1cc(C2c3cc4c(cc3OC(Nc3ccc(C(=O)O)cc3)C2C)OCO4)cc(OC)c1OC (centres undefined)	0.115 µM (active)	0.346 µM (active)	1.38 µM (inactive)	0.0557 µM (active)	11.1 µM (inactive)	0.0317 µM (active)	0.362 µM (active)	0.618 µM (active)	0.282 µM (active)	0.232 µM (active)	2.31 µM (inactive)	0.403 µM (active)	0.35 µM (active)	0.378 µM (active)	0.189 µM (active)	0.31 µM (active)	0.218 µM (active)	0.841 µM (active)	0.241 µM (active)
Cc1cccc2c(N)c3cccc(C(=O)NCC[N+](C)(C)Cc4ccc([N+](=O)[O-])n4C)c3nc12	22.4 µM (inactive)	8.26 µM (inactive)	10.1 µM (inactive)	41.3 µM (inactive)	43.8 µM (inactive)	52 µM (inactive)	25.1 µM (inactive)	9.53 µM (inactive)	3.7 µM (inactive)	8.65 µM (inactive)	6.5 µM (inactive)	44.3 µM (inactive)	18.6 µM (inactive)	18.8 µM (inactive)	38.6 µM (inactive)	14.6 µM (inactive)	13.5 µM (inactive)	17.6 µM (inactive)	16.7 µM (inactive)
CC(C)CC(=O)OC[n+]1cccc(-c2c(COC(=O)NC(C)C)c(COC(=O)NC(C)C)c3n2CCC3)c1	33.9 µM (inactive)	41.5 µM (inactive)	24.9 µM (inactive)	> 100 µM (inactive)	> 100 µM (inactive)	> 100 µM (inactive)	55.3 µM (inactive)	> 100 µM (inactive)	34.1 µM (inactive)	45.1 µM (inactive)	> 100 µM (inactive)	25.6 µM (inactive)	51.1 µM (inactive)	24.7 µM (inactive)	37.4 µM (inactive)	44 µM (inactive)	37.5 µM (inactive)	60.8 µM (inactive)	> 100 µM (inactive)
CCCCCCCCCCCCCCCC(=O)OC1C(O)C(O)C(O)C(O)C12CO2 (centres undefined)	69.2 µM (inactive)	17.5 µM (inactive)	24.4 µM (inactive)	> 100 µM (inactive)	> 100 µM (inactive)	48.5 µM (inactive)	51.4 µM (inactive)	25.1 µM (inactive)	7.94 µM (inactive)	16.2 µM (inactive)	42.8 µM (inactive)	28.4 µM (inactive)	14.7 µM (inactive)	88.5 µM (inactive)	34.4 µM (inactive)	24.3 µM (inactive)	25.8 µM (inactive)	56 µM (inactive)	36.2 µM (inactive)
CN(C)CCCNc1cnc2cc3ccccc3cc2n1	21.6 µM (inactive)	36.5 µM (inactive)	31.2 µM (inactive)	32.8 µM (inactive)	22.6 µM (inactive)	24.5 µM (inactive)	55.1 µM (inactive)	13.9 µM (inactive)	42 µM (inactive)	21.3 µM (inactive)	16.8 µM (inactive)	15.6 µM (inactive)	37.4 µM (inactive)	41 µM (inactive)	16.4 µM (inactive)	32.8 µM (inactive)	23.5 µM (inactive)	18.6 µM (inactive)	20 µM (inactive)
NS(=O)(=O)c1ccc(NC(=S)NC(=O)Nc2ccc(Cl)c(Cl)c2)cc1	15.3 µM (inactive)	14.9 µM (inactive)	11.5 µM (inactive)	14.6 µM (inactive)	17.8 µM (inactive)	14.4 µM (inactive)	18.5 µM (inactive)	19.3 µM (inactive)	16.5 µM (inactive)	15 µM (inactive)	20.4 µM (inactive)	13.5 µM (inactive)	16.5 µM (inactive)	15.5 µM (inactive)	1.06 µM (active)	13.4 µM (inactive)	18.2 µM (inactive)	12.8 µM (inactive)	9.29 µM (inactive)
Nc1cccc(OCC2CCCN3CCCCC23)c1 (centres undefined)	20.5 µM (inactive)	24.4 µM (inactive)	18 µM (inactive)	16 µM (inactive)	19.1 µM (inactive)	22.5 µM (inactive)	72.9 µM (inactive)		15.2 µM (inactive)	19.5 µM (inactive)	41.7 µM (inactive)	17.1 µM (inactive)	21.3 µM (inactive)	17.5 µM (inactive)	17.2 µM (inactive)	16.3 µM (inactive)	18.3 µM (inactive)	17.7 µM (inactive)	17.6 µM (inactive)
CNC(=O)C(C)NC(=O)C(Cc1ccccc1)NC(=O)OC(C)(C)C (centres undefined)	> 100 µM (inactive)	> 100 µM (inactive)	> 100 µM (inactive)	> 100 µM (inactive)	> 100 µM (inactive)	> 100 µM (inactive)	> 100 µM (inactive)	> 100 µM (inactive)	> 100 µM (inactive)	> 100 µM (inactive)	> 100 µM (inactive)	> 100 µM (inactive)	> 100 µM (inactive)	> 100 µM (inactive)	> 100 µM (inactive)	> 100 µM (inactive)	> 100 µM (inactive)	> 100 µM (inactive)	> 100 µM (inactive)
C=C(C)[C@@H]1CCC2=C[C@H](OC2=O)[C@@]2(C)C[C@@H]2C2=CC(C)=C(O2)[C@H]1O	38.5 µM (inactive)	> 75 µM (inactive)	36.9 µM (inactive)	23.4 µM (inactive)	46 µM (inactive)	30.6 µM (inactive)	54.5 µM (inactive)	21.3 µM (inactive)	37.4 µM (inactive)	53.2 µM (inactive)	27.7 µM (inactive)	41.1 µM (inactive)	> 75 µM (inactive)	37.3 µM (inactive)	28.2 µM (inactive)	22.3 µM (inactive)	49.8 µM (inactive)	> 75 µM (inactive)	25.5 µM (inactive)
CC(C)(C)OC(=O)N(O)[C@@H]1CC[C@H](n2cnc3c(N)ncnc32)C1	> 100 µM (inactive)	> 100 µM (inactive)	> 100 µM (inactive)	> 100 µM (inactive)	> 100 µM (inactive)	> 100 µM (inactive)	> 100 µM (inactive)	54.5 µM (inactive)	> 100 µM (inactive)	> 100 µM (inactive)	> 100 µM (inactive)	> 100 µM (inactive)	> 100 µM (inactive)	> 100 µM (inactive)	> 100 µM (inactive)	> 100 µM (inactive)	> 100 µM (inactive)	> 100 µM (inactive)	> 100 µM (inactive)
CC(C)NC(=O)OCc1c(COC(=O)NC(C)C)n(C)c2c1ccc1ccccc12	1.25 µM (inactive)	1.63 µM (inactive)	1.48 µM (inactive)	1.74 µM (inactive)	1.99 µM (inactive)	1.52 µM (inactive)	9.82 µM (inactive)	1.43 µM (inactive)	0.112 µM (active)	0.57 µM (active)	1.82 µM (inactive)	1.44 µM (inactive)	1.37 µM (inactive)	3.1 µM (inactive)	1.57 µM (inactive)	1.45 µM (inactive)	1.68 µM (inactive)	2.97 µM (inactive)	4.51 µM (inactive)
Cn1c(=O)c2sc3c4sc5c(=O)n(C)c6ccccc6c5c4sc3c2c2ccccc21	12.6 µM (inactive)	47.5 µM (inactive)	48.1 µM (inactive)	> 100 µM (inactive)	> 100 µM (inactive)	> 100 µM (inactive)	> 100 µM (inactive)	> 100 µM (inactive)	> 100 µM (inactive)	> 100 µM (inactive)	> 100 µM (inactive)	> 100 µM (inactive)	> 100 µM (inactive)	> 100 µM (inactive)	31.5 µM (inactive)	> 100 µM (inactive)	> 100 µM (inactive)	> 100 µM (inactive)	> 100 µM (inactive)
O=c1nc2n3c4c(cccc4nc-2c(=O)[nH]1)CCC3	> 100 µM (inactive)	> 100 µM (inactive)	> 100 µM (inactive)	> 100 µM (inactive)	> 100 µM (inactive)	61.9 µM (inactive)	> 100 µM (inactive)	> 100 µM (inactive)	> 100 µM (inactive)	58.3 µM (inactive)	> 100 µM (inactive)	> 100 µM (inactive)	> 100 µM (inactive)	> 100 µM (inactive)	> 100 µM (inactive)	47.5 µM (inactive)	> 100 µM (inactive)	> 100 µM (inactive)	37.4 µM (inactive)
